Series [1] deals with Human immunodeficiency virus 1. Description: Antiviral activity against HIV-1 RF infected in human JM1 cells. In kind it is functional, organism-based. The conditions noted are these: Human immunodeficiency virus 1, RF.
Series [2] can be described thus: Selectivity index, ratio of CC50 for cytotoxicity against human TZM-bl cells to EC50 for antiviral activity against HIV-1 NL 4-3 (X4) infected in human TZM-bl cells. In kind it is toxicity, cell-based. The conditions noted are these: read-out: Ratio CC50/EC50.
Series [3] has as its system Human immunodeficiency virus 1. Description: Antiviral activity against HIV-1 NL 4-3 (X4) infected in human MT4 cells assessed as inhibition of virus induced cytopathic effect by MTT assay. Format: functional, organism-based. The conditions noted are these: Human immunodeficiency virus 1, NL 4-3 (X4). A general note: Cytopathic effects are the visible damage that an infection or toxin causes in cultured cells.

The subject of series [4] is Human immunodeficiency virus 1. Put plainly: Antiviral activity against HIV-1 NL 4-3 (X4) infected in human TZM-bl cells assessed as inhibition of virus induced cytopathic effect by luciferase based assay. The conditions noted are these: Human immunodeficiency virus 1, NL 4-3 (X4). In kind it is functional, organism-based.
Series [5] concerns Human immunodeficiency virus 1. Description: Antiviral activity against HIV-1 Bal (R5) infected in human TZM-bl cells assessed as inhibition of virus induced cytopathic effect by luciferase based assay. In kind it is functional, organism-based. The following applies: Human immunodeficiency virus 1, Bal (R5).
Series [6] can be described thus: Selectivity index, ratio of CC50 for cytotoxicity against human TZM-bl cells to EC50 for antiviral activity against HIV-1 Bal (R5) infected in human TZM-bl cells. In kind it is toxicity, cell-based. The conditions noted are these: read-out: Ratio CC50/EC50.
The nature of series [7]: Cytotoxicity against human TZM-bl cells by luciferase assay. In kind it is toxicity, cell-based.
A short description of series [8]: Selectivity index, ratio of CC50 for cytotoxicity against human MT4 cells to EC50 for antiviral activity against HIV-1 NL 4-3 (X4) infected in human MT4 cells. In kind it is toxicity, cell-based. The following applies: read-out: Ratio CC50/EC50.
A short description of series [9]: Cytotoxicity against human MT4 cells by MTT assay. In kind it is toxicity, cell-based. (Tetrazolium assays rely on reduction of a dye to a coloured formazan, in cell work by metabolically active cells.)
Series [10] can be described thus: Selectivity index, ratio of CC50 for cytotoxicity against human Huh-7 cells to EC50 for Dengue virus 2 New Guinea C infected in human Huh-7 cells. Format: toxicity, cell-based. The following applies: read-out: Ratio CC50/EC50.
In series [11] the test system is dengue virus type 2. Put plainly: Antiviral activity against Dengue virus 2 New Guinea C infected in human Huh-7 cells assessed as reduction in virus induced cytopathic effect incubated for 3 days by trypan blue staining based assay. In kind it is functional, organism-based. The conditions noted are these: Huh-7, 72 h.
Series [12] is described as follows: Cytotoxicity against human Huh-7 cells assessed as reduction in cell viability incubated for 3 days by MTT assay. The following applies: time 3 day. Format: toxicity, cell-based.
The subject of series [13] is Influenza A virus. Put plainly: Antiviral activity against influenza A virus A/NWS/33 (H1N1) infected in MDCK cells. In kind it is functional, organism-based.
The test system of series [14] is Human alphaherpesvirus 2. Put plainly: Antiviral activity against HSV-2 UW 268 infected in MDCK cells assessed as inhibition of viral replication measured after 24 hrs by plaque reduction assay. Format: functional, organism-based. The conditions noted are these: Human alphaherpesvirus 2, UW 268, MDCK.
The test system of series [15] is Human alphaherpesvirus 1. Description: Antiviral activity against HSV-1 KOS infected in MDCK cells assessed as inhibition of viral replication measured after 24 hrs by plaque reduction assay. Format: functional, organism-based. The conditions noted are these: Human alphaherpesvirus 1, KOS. (Plaques are areas of infected cells; plaque reduction assays count them against a control.)

Series [16] has as its system Influenza A virus. Description: Antiviral activity against influenza A virus A/Guangdong/243/72 ([…]) infected in MDCK cells assessed as inhibition of virus-induced cytopathic effect. Format: functional, organism-based.
Series [17] in a line: Selectivity index, ratio of CC50 for cytotoxicity against MDCK cells to IC50 for influenza A virus A/Guangdong/243/72 ([…]) infected in MDCK cells. The following applies: dog, read-out: Ratio CC50/IC50. Format: toxicity, cell-based.
Series [18] has as its target Neuraminidase (Influenza A virus (A/Puerto Rico/8/1934(H1N1)), UniProt P03468). Put plainly: Inhibition of influenza A virus A/PR/8/34 (H1N1) neuraminidase.
The test system of series [19] is Human immunodeficiency virus 1. Description: Antiviral activity against HIV-1 infected in human macrophages assessed as inhibition of viral replication. In kind it is functional. The conditions noted are these: Human immunodeficiency virus 1, Macrophage.
For series [20], the system named is Human immunodeficiency virus 1. Description: Antiviral activity against HIV-1 infected in human leucocytes assessed as inhibition of viral replication. Format: functional. The conditions noted are these: Human immunodeficiency virus 1, Leucocyte.
Series [21] relates to Hepatitis C virus. Description: Antiviral activity against Hepatitis C virus genotype 1 Bart791 infected in human Huh7.5 cells assessed as reduction in viral replication treated for 72 hrs by qRT-PCR analysis. Format: functional, organism-based, Hepacivirus hominis. The following applies: genotype 1 Bart791, Huh7.5, 72 h.
In series [22] the test system is Hepatitis C virus. Put plainly: Antiviral activity against Hepatitis C virus genotype 2 Rluc-J6/JFH1 infected in human Huh7.5 cells assessed as reduction in viral replication treated for 72 hrs by qRT-PCR analysis. In kind it is functional, organism-based, Hepacivirus hominis. The conditions noted are these: genotype 2 Rluc-J6/JFH1, Huh7.5, 72 h.
The subject of series [23] is Hepatitis C virus. Put plainly: Antiviral activity against Hepatitis C virus genotype 2 J6/JFH1 infected in human Huh7.5 cells assessed as reduction in viral replication treated for 72 hrs by qRT-PCR analysis. Format: functional, organism-based, Hepacivirus hominis. The conditions noted are these: genotype 2 J6/JFH1, Huh7.5, 72 h.
The subject of series [24] is Hepatitis C virus. Put plainly: Antiviral activity against Hepatitis C virus infected in human Huh7.5 cells assessed as reduction in viral replication. In kind it is functional, organism-based, Hepacivirus hominis.
Series [25] can be described thus: Cytotoxicity against human Huh7.5 cells infected with Hepatitis C virus assessed as reduction in cell viability. Format: toxicity, cell-based, Huh-7.5.

pEC50, pIC50: −log10 of the molar value. Converted amounts (≈) assume the structure as drawn.

Neuraminidase (Influenza A virus (A/Puerto Rico/8/1934(H1N1)), UniProt P03468), sequence (P03468 whole entry): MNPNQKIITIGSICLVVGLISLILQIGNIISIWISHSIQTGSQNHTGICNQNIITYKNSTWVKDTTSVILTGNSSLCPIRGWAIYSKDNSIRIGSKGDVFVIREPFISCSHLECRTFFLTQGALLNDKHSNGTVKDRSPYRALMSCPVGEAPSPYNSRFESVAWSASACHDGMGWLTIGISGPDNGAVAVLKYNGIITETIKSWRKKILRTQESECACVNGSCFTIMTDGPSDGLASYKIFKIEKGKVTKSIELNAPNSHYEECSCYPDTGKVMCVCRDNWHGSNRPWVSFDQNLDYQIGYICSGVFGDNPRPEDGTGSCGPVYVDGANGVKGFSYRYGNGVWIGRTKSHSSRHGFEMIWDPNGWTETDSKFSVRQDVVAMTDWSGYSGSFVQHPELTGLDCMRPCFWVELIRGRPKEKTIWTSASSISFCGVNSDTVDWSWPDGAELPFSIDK

As for `O=S(=O)(O)c1cc(N=C=S)ccc1/C=C/c1ccc(N=C=S)cc1S(=O)(=O)O`, the negative-log IC50 (pIC50) (usually −log10 of the IC50, conventionally taken in molar units) in series [1] was 4.70.

Regarding `Oc1cc(/C=C/c2cc(O)c(O)c(O)c2)cc(O)c1O`, the selectivity ratio turned out to be 69 in series [2], 12 in series [6] and 16 in [8]. Also, the negative logarithm of the EC50 (pEC50) – broadly, −log10 of the EC50, conventionally taken in molar units – is 6.13 in series [3], 6.54 in series [4] and 5.77 in series [5]. The CC50 (in general, the concentration at which the toxic effect on the cells reaches its halfway point) in series [7] stood at 20.1 µM; in [9], 11.9 µM.

In the case of `COc1cc(/C(C#N)=C\c2cc3ccccc3s2)cc(OC)c1OC`, the selectivity ratio in [10] was 263. In [11], the pEC50 is 8.14. The CC50 at 72 h in [12] came out at 1.9 µM.

With `Oc1ccc([C@@H]2c3c(O)cc(O)cc3[C@@H]3c4c(cc(O)cc4[C@H]2[C@@H]2c4cc(O)cc5c4[C@@H](c4cc(O)cc(O)c4[C@H]2c2ccc(O)cc2)[C@H](c2ccc(O)cc2)O5)O[C@H]3c2ccc(O)cc2)cc1`, the negative logarithm of the IC50 (pIC50) in [13] is 5.19; in series [14], 5.19; in [15], 5.55.

`O=C1C=C[C@]23[C@H](C1)Oc1cccc4c1[C@H]2[C@H](c1cc(O)cc2c1[C@@H]4[C@H](c1ccc(O)cc1)O2)[C@@H](c1cc(O)cc2c1[C@@H](c1cc(O)cc(O)c1)[C@H](c1ccc(O)cc1)O2)[C@@H]3c1ccc(O)cc1`: the pIC50 was 5.17 in [14] and 5.55 in series [15].

For the compound `COc1cc(/C=C/c2cc(O)cc(O)c2Cc2ccc(O)c(O)c2)ccc1O`, the IC50 (as a rule, the midpoint of a concentration-inhibition curve) in [16] came to 6.17 µg/mL (≈ 16.2 µM). Besides, the selectivity ratio in series [17] came out at 32.4. Further, the pIC50 in series [18] is 4.88.

On to `CC(=O)CC(=O)Nc1ccc(/C=C/c2ccc(-n3nccc3O)cc2S(=O)(=O)O)c(S(=O)(=O)O)c1`, for which the concentration for an effect of 90% (EC90) in series [19] and in series [20] was 0.5 µM throughout.

With `COc1cc(/C(C)=C/c2cc3ccccc3[nH]2)cc(OC)c1OC`, in series [10], the selectivity ratio worked out at 209. Moreover, in series [11], the pEC50 was 8.09. Besides, the CC50 at 72 h in series [12] amounted to 1.7 µM.

Turning to `Oc1ccc(C2Oc3ccc(/C=C/c4cc(O)cc5c4C(c4cc(O)cc(O)c4)C(c4ccc(O)cc4)O5)cc3C2c2cc(O)cc3c2C(c2cc(O)cc(O)c2)C(c2ccc(O)cc2)O3)cc1` (stereo not given), the pEC50 in series [21] is 9.00; in series [22] it was 8.52; in series [23], 8.52; in series [24] it was 8.22. For the same compound, the CC50 in series [25] is over 10 µM.

These data come from ChEMBL document CHEMBL5233255, “Natural and nature-inspired stilbenoids as antiviral agents” (Eur J Med Chem, 2020).
